pIC50: −log10 of the molar value. In brackets after ≈: the same amount, converted by molar mass. Where two headings read alike, the source gives them in different places.
Columns and labels:
MRP = target: T1, MRP (Homo sapiens, UniProt P33527); test: Inhibition of MRP-mediated calcein-AM extrusion (calcein accumulation) in S1MRP and HL60 ADR cells; assay type: cell-based
T1 construct: endogenous in cells

MDR1 [1] = target: T2, MDR1 (Homo sapiens, UniProt P08183); test: Inhibition of MDR1-mediated calcein-AM extrusion (calcein accumulation) in 3T3 MDR and K562 MDR cells
K562-MDR cells = test: Cytotoxicity assay, 3 days culture with adriamycin; assay type: cell-based; settings: Homo sapiens, 72 h, K562-MDR cell line, read-out: Resistance to Adriamycin (IC50, ng/ml)
Procedure: (§1) Cells were cultured for 3 days under standard conditions in the presence of 0.1-100 ng/ml adriamycin. The number of cells in the different cell cultures is given as the percentage of the number of cells counted in the culture not treated with the drug. As it can well be seen on FIG. 5, the really expressed drug resistance is in much better accordance with the results obtained by the method of the invention based on the measurement of calcein accumulation than with those obtained by the traditional immunological measurement of MDR expression.
(§2) Cells were cultured for 3 days under standard conditions in the presence of 0.1-100 ng/ml adriamycin. The number of cells in the different cell cultures is given as the percentage of the number of cells counted in the culture not treated with the drug.

K562-mMDR cells = test: Cytotoxicity assay, 3 days culture with adriamycin; assay type: cell-based; settings: Homo sapiens, 72 h, K562-mMDR cell line (inactive mutant MDR protein), read-out: Resistance to Adriamycin (IC50, ng/ml)
Procedure: as §1, §2

K562-C cells = test: Cytotoxicity assay, 3 days culture with adriamycin; assay type: cell-based; settings: Homo sapiens, 72 h, K562-C cell line, read-out: Resistance to Adriamycin (IC50, ng/ml)
Procedure: as §1, §2

P388-MDRa cells = test: Cytotoxicity assay, adriamycin resistance; assay type: cell-based, murine; settings: Mus musculus; P388-MDRa cell line
Excerpt: (§3) Elapsed time is shown on the abscissa and fluorescence intensity in arbitrary units is shown on the ordinate.

P388-C cells [2] = test: Cytotoxicity assay, adriamycin resistance; assay type: cell-based, murine; settings: Mus musculus; P388-C control cell line
Excerpt: as §3

P388-MDRb cells = test: Cytotoxicity assay, adriamycin resistance; assay type: cell-based, murine; settings: Mus musculus; P388-MDRb cell line
Excerpt: as §3

MDR1 [3] = target: T2, MDR1
P388-C cells [4] = test: Calcein accumulation by fluorescent spectrophotometry in control cells; assay type: cell-based, murine; settings: 100 μmol/l verapamil
Excerpt: as §3

KB3 cells = test: Calcein accumulation by flow cytometry in control cells; settings: 100 μmol/l verapamil pretreatment 5 min, control cell line KB3
Procedure: In the experiments shown in FIG. 2 a drug sensitive (control, cell line KB3) and three increasingly multi-drug resistant (cell lines KB-V1a-c) human epidermoid carcinoma cell lines were examined.
As all the specimens were incubated for the same time (10 min) with calcein-AM, the measure of the accumulation of calcein detected exactly after 10 minutes can be taken as the rate of calcein accumulation.

MDR dependent ATPase = MDR dependent ATPase (Homo sapiens, UniProt P08183); settings: cited from earlier work
[5] = inhibition of MRP-mediated calcein-AM extrusion, S1MRP and HL60 ADR cells, range of at least 3 independent experiments with each cell line, read-out: IC50 MRP
[6] = read-out: IC50 MDR1, inhibition of MDR1-mediated calcein-AM extrusion, 3T3 MDR and K562 MDR cells, range of at least 3 independent experiments, > = 50% inhibition not achieved (a solubility problem, b esterase inhibition)

T2 sequence (P08183 whole entry): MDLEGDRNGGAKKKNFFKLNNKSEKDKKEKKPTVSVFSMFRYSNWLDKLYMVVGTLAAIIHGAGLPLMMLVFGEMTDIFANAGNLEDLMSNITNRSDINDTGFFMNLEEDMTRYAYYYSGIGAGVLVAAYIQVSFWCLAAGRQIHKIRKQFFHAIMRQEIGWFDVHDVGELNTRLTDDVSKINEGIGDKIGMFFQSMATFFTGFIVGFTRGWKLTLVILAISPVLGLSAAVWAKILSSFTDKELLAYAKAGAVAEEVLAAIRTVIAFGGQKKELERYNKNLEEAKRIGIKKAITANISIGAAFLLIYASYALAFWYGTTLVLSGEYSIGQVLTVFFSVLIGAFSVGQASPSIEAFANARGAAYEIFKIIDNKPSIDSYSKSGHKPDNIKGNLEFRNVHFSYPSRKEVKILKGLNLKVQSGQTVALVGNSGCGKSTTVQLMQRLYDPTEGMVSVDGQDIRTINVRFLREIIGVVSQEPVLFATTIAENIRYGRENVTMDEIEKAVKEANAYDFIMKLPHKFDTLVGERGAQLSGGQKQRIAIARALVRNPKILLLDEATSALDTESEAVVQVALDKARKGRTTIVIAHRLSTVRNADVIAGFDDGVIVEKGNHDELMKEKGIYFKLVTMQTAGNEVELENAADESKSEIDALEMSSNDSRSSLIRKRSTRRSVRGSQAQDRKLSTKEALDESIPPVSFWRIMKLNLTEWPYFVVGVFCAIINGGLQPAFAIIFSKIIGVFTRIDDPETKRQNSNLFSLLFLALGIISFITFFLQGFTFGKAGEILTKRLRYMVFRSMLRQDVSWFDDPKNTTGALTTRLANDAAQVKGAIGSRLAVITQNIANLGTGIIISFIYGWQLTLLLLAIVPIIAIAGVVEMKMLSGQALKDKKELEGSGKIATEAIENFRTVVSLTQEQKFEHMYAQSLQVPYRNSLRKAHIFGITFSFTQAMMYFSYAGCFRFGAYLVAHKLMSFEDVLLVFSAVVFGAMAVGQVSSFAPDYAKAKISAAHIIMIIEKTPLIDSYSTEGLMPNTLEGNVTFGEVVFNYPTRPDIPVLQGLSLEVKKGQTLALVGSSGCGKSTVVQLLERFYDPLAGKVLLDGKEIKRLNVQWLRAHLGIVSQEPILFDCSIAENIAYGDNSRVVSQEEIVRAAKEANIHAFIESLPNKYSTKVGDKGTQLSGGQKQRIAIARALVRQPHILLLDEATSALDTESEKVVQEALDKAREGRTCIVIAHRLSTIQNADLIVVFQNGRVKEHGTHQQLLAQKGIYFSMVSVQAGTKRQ
T1 sequence (P33527 whole entry): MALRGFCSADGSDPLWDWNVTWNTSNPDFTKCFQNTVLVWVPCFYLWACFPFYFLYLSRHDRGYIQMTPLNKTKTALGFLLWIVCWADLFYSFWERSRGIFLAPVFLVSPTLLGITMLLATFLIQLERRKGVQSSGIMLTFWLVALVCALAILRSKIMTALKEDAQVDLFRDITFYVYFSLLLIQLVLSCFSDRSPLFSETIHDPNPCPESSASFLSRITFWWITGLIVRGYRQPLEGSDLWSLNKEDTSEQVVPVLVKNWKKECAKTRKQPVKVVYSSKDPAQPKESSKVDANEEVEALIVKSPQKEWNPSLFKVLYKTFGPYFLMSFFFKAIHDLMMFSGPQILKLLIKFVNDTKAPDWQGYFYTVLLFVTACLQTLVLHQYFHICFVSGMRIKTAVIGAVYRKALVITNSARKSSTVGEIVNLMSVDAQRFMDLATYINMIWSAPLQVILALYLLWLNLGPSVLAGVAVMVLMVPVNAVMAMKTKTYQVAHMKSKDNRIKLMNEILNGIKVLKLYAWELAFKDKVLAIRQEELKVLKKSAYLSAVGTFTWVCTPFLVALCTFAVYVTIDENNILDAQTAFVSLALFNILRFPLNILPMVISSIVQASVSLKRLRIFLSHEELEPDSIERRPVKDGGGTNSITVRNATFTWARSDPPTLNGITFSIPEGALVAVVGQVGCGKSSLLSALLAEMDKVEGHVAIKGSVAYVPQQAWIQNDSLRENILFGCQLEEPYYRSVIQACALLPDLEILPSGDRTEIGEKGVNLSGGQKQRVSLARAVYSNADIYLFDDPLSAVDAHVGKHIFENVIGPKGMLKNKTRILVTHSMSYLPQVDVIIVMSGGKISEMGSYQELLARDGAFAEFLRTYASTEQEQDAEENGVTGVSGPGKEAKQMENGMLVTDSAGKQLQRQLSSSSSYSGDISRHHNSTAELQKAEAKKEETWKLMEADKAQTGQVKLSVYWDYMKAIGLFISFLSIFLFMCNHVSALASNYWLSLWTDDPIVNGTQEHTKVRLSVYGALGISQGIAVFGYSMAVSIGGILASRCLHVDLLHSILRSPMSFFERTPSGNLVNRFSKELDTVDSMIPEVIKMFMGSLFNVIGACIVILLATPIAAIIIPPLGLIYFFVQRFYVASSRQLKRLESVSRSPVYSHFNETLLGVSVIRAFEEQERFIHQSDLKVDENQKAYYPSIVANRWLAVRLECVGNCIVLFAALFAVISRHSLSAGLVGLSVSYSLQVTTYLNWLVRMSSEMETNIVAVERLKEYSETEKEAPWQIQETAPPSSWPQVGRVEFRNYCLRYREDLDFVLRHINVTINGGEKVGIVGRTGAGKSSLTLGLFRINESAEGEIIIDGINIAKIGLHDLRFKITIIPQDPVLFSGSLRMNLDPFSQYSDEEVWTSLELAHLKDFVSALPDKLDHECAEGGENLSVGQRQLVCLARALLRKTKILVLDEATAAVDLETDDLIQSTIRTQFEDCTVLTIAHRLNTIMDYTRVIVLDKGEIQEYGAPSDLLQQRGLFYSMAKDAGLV
MDR dependent ATPase, sequence (P08183 whole entry): as the sequence (P08183 whole entry) above

Row | pIC50 (MDR1 [1]) | Molecule | pIC50 (MRP; [5]) | other results
1 | – | O=[N+]([O-])c1ccc(O)c([N+](=O)[O-])c1 [2,4-DNP] | 4.30 to 4.52 | pIC50 (MDR1 [1]; [6]): < 3.70
2 | – | COc1cccc2c1C(=O)c1c(O)c3c(c(O)c1C2=O)C[C@@](O)(C(=O)CO)C[C@@H]3O[C@H]1C[C@H](N)[C@H](O)[C@H](C)O1 [Adriamycin] | – | IC50 (K562-MDR cells): 3.1 ng/mL (≈ 5.7 nM); IC50 (K562-mMDR cells): 0.35 ng/mL (≈ 0.644 nM); IC50 (K562-C cells): 0.7 ng/mL (≈ 1.29 nM); IC50 (P388-MDRa cells): 4 ng/mL (≈ 7.36 nM); IC50 (P388-C cells [2]): 0.5 ng/mL (≈ 0.92 nM); IC50 (P388-MDRb cells): 9 ng/mL (≈ 16.6 nM)
3 | < 3.30 | CCc1oc2ccccc2c1C(=O)c1cc(Br)c(O)c(Br)c1 [Benzbromarone] | – | –
4 | – | O=C1OC(c2ccc(O)c(S(=O)(=O)O)c2)(c2ccc(O)c(S(=O)(=O)O)c2)c2c(Br)c(Br)c(Br)c(Br)c21 [Bromosulfophthalein] | 3.82 to 4.00 | pIC50 (MDR1 [1]; [6]): < 3.00
5 | – | N#CC(C#N)=NNc1cccc(Cl)c1 [CCCP] | 4.52 to 5.00 | pIC50 (MDR1 [3]): < 3.70
6 | 5.52 to 6.00 | Clc1ccc(COC(Cn2ccnc2)c2ccc(Cl)cc2Cl)cc1 (centres unmarked) [Econazole] | 5.00 to 5.52 | –
7 | < 3.10 | C=C(CC)C(=O)c1ccc(OCC(=O)O)c(Cl)c1Cl [Ethacrynic acid] | 4.52 to 4.70 | –
8 | < 3.10 | COc1ccc2c(c1)c(CC(=O)O)c(C)n2C(=O)c1ccc(Cl)cc1 [Indomethacin] | 4.70 to 5.00 | –
9 | – | C[CH2][Hg][S]c1ccccc1C(=O)[O-].[Na+] [Merthiolate] | 4.70 to 5.00 | pIC50 (MDR1 [1]; [6]): < 3.70
10 | < 2.70 | CCCN(CCC)S(=O)(=O)c1ccc(C(=O)O)cc1 [Probenacid, Probenecid] | 3.10 to 3.30 | –
11 | – | CCCCC[C@H](O)/C=C/[C@H]1C=CC(=O)[C@@H]1CCCCCCC(=O)O [Prostaglandin A1] | 5.30 to 5.52 | pIC50 (MDR1 [1]; [6]): < 4.00
12 | – | C=C[C@H]1C[N@@]2CC[C@H]1C[C@H]2[C@H](O)c1ccnc2ccc(OC)cc12 [Quinine] | 4.00 to 4.30 | –
13 | < 2.70 | O=C1C(CC[S+]([O-])c2ccccc2)C(=O)N(c2ccccc2)N1c1ccccc1 (centres unmarked) [Sulfinpyrazone] | 3.30 to 3.52 | –
14 | – | CC/C(=C(\c1ccccc1)c1ccc(OCCN(C)C)cc1)c1ccccc1 [Tamoxifen] | 5.22 to 5.52 | –
15 | – | COc1ccc(CCN(C)CCCC(C#N)(c2ccc(OC)c(OC)c2)C(C)C)cc1OC (centres unmarked) [Verapamil] | – | effect on rate of calcein accumulation (P388-C cells [4]): not influenced; effect on calcein accumulation (KB3 cells): no detectable effect
16 | – | CC[C@]1(O)C[C@@H]2CN(CCc3c([nH]c4ccccc34)[C@@](C(=O)OC)(c3cc4c(cc3OC)N(C)[C@H]3[C@@](O)(C(=O)OC)[C@H](OC(C)=O)[C@]5(CC)C=CCN6CC[C@]43[C@@H]65)C2)C1 [Vinblastine] | 5.30 to 5.70 | –
17 | – | calcein-acetoxy-methylester [calcein-AM] | – | Ka, activation of the MDR dependent ATPase (MDR dependent ATPase): ≤ 1 µmol/L

Row | Molecule | pIC50 (MDR1 [1]) | pIC50 (MRP; [5]) | other results
18 | O=C(O)CCCc1ccc(N(CCCl)CCCl)cc1 [Chlorambucil] | < 3.30 | – | pIC50 (MRP): 4.30 to 4.52
19 | O=c1c(-c2ccc(O)cc2)coc2cc(O)cc(O)c12 [Genistein] | < 3.00 | 3.70 to 3.82 | –
20 | CCN1C(=O)C=CC1=O [NEM, N-ethylmaleimide] | < 4.30 | 6.30 to 6.70 | –
21 | CC[C@H]1/C=C/C=C/C[C@@H](C)[C@H](O)[C@@](C)(O)C(=O)[C@@H](C)[C@H](O)[C@@H](C)C(=O)[C@@H](C)[C@H](O)[C@@H](C)/C=C/C(=O)O[C@@H]2[C@H](C)[C@H](CC1)O[C@]1(CC[C@H](C)[C@H](C[C@@H](C)O)O1)[C@H]2C [Oligomycin] | 5.70 to 6.00 | 5.70 to 6.00 | –

— patent publication US6391656B2, “Assay and reagent kit for evaluation of multi-drug resistance in cells” (SOLVO Biotechnology, priority 1994, dated 2002)
